In paper PMC11434026, “Development and Validation of an LC-MS/MS Assay for the Quantitation of MO-OH-Nap Tropolone in Mouse Plasma: Application to In Vitro and In Vivo Pharmacokinetic Studies” (Molecules, 2024):
Values joined by “and” are separate entries in the source; they are usually repeats but may differ in a detail not shown here. Identical values can stand only once.

Key:
[1] = Thermodynamic aqueous solubility in PBS; type: physicochemical
Method: After completion of incubation, the microcentrifuge tube was centrifuged at 10,000× g for 10 min. The supernatant (100 μL) was mixed with an equal volume of ACN and centrifuged again at 10,000× g for 10 min. The supernatant was further diluted 80× times with mobile phase and transferred to autosampler vials and analyzed by LC-MS/MS.

[2] = Blood to plasma ratio (B/P) in fresh mouse blood; type: in vitro ADME; details: 1 µM, 37 °C
Method: Fresh mouse blood (800 µL) was incubated in a water bath maintained at 37 °C for 10 min prior to drug spiking. Blood was spiked with the drug at concentrations of 1 µM to maintain organic content < 1%. Aliquots of 50 µL were collected at different time points (0, 30, and 60 min) for blood analysis as well an additional sample of 120 µL was collected into a micro-centrifuge tube and centrifuged at 4000× g for 10 min at 4 °C to separate 50 µL plasma for analysis. For matrix match and calibration, blank plasma of 50 µL was added to the collected blood aliquot, and 50 µL of blank blood was added to the extract of 50 µL plasma. The whole blood and plasma samples were further processed by PPT as described above. The analyte peak area ratios were used to calculate the (B/P) ratio using Equation (5). (5) (B/P) ratio=Blood Concentration /Plasma Concentration

[3] = Stability in mouse plasma at storage and use conditions; type: physicochemical
Method: The chemical stability of MO-OH-Nap and IS in plasma samples were assessed at LQC, MQC, and HQC concentrations, n = 3, under the following storage conditions: bench-top storage (up to 6 h at room temperature, 21 ± 0.5 °C), three freeze–thaw cycles (−80 ± 0.5 °C to room temperature for 30 min, back to −80 ± 0.5 °C then stored for 24 h, the cycle was repeated twice more), long-term storage (12 months at −80 ± 0.5 °C), and 24 h auto-sampler stability of extracted samples (at 4 ± 0.5 °C).

[4] = In vitro metabolic stability in mouse liver microsomes; type: in vitro ADME; details: MLM
Method: Metabolic stability was assessed using mouse, rat, and human liver microsomes (XenoTech, LLC, Lenexa, KS, USA) for phase I metabolism. Briefly, A reaction solution was prepared by mixing […] of PBS (100 mM, pH 7.4), 25 µL of microsomal protein (20 mg/mL), MgCl2 (5 µL; 10 mM), and 50 µL of NADPH (2 mM). The final volume (0.5 mL) was pre-incubated for 10 min in a 37 °C water bath at 60 rpm. An aliquot of MO-OH-Nap (2 µL from 1 µg/mL stock) was spiked into the above solution to initiate the reaction. Aliquots of (50 µL) were collected at time intervals (0, 5, 15, 20, 30, 45, and 60 min) and quenched with 300 µL of ACN, […]. Afterwards, 10 µL of IS stock (1.0 µg/mL) was spiked in each sample then vortexed (5 min) and centrifuged at 10,800 rpm (13,000× g) for 15 min. Samples were vortexed and centrifuged at 10,800 rpm (13,000× g) for 15 min, the supernatant was collected and transferred to an HPLC vial and 10 µL were injected into the LC-MS/MS system. Testosterone and diclofenac were used as positive and negative controls to ensure that liver microsomes and incubation conditions were appropriate for conducting metabolism studies.

mouse plasma proteins = experiment: Plasma protein binding by Rapid Equilibrium Dialysis (RED); type: in vitro ADME; details: for % Drug Remaining at 5 h ± SD: 37 °C; for Equilibrium at 5 h ± SD: receiver/donor concentration; for % Plasma Protein Bound ± SD: mouse plasma; for % Drug Remaining at 5 h ± SD / % Plasma Protein Bound ± SD: 5 h
Method: […] The RED Kit represents 90 wells with two chambers at each well (red chamber for plasma and white buffer chamber separated by Teflon base plate. Prior to the experiments, RED kit was rinsed with 10% ethanol for 10 min and left to dryness. Also, mouse plasma was centrifuged at 2200 rpm (540× g) for 5 min and adjusted to pH […] with lactic acid. In brief, MO-OH-Nap spiked plasma samples (300 µL) were added in red chamber. The buffer chamber contained […] of Phosphate-buffered saline (100 mM, pH 7.4), which contained 100 mM sodium phosphate (Na3PO4) and 150 mM NaCl. The RED kit plate was covered with sealing tape and incubated at 37 °C on an orbital shaker at 300 rpm for 5 h. Aliquot of 50 µL were collected from both chambers, then mixed with equal amount of buffer or blank plasma, consecutively, for analysis. The samples were then processed using PPT extraction technique, as per described in the Section 4.4, and analyzed by LC-MS/MS.
Additionally, the plasma stability and the non-specific binding potential of MO-OH-Nap to the RED kit dialysis membrane were determined separately at the same time from the remaining plasma samples spiked with MO-OH-Nap.
Stability and non-specific binding were assessed by collecting samples at 0 h and 5 h of spiked MO-OH-Nap […] that was incubated in the same PPB condition for 5 h. The two samples were then analyzed by LC-MS/MS and the concentration was then compared between the two time points. The stability, equilibrium, device recovery, and PPB in plasma were calculated using the following equations:(6) % Drug Bound=Concentrationdonor cell−Conentrationreceiver cell/Concentrationdonor cell×100 (7) % Device Recovery=Concentrationreceiver cell+Concentrationdonor cell/Concentration5 h×100 (8) % Remaining at 5 h=Concentration5 h/Concentration0 h×100 (9) Equilibrium at 5 h=Concentrationreceiver cell/Concentrationdonor cell

[5] = autosampler 4 °C, up to 24 h, extracted samples, HQC 375 ng/mL
[6] = autosampler 4 °C, up to 24 h, extracted samples, LQC 3 ng/mL
[7] = autosampler 4 °C, up to 24 h, extracted samples, MQC 200 ng/mL
[8] = bench-top 21 °C, up to 6 h, HQC 375 ng/mL
[9] = bench-top 21 °C, up to 6 h, LQC 3 ng/mL
[10] = bench-top 21 °C, up to 6 h, MQC 200 ng/mL
[11] = freeze-thaw −80 °C, 3 cycles, HQC 375 ng/mL
[12] = freeze-thaw −80 °C, 3 cycles, LQC 3 ng/mL
[13] = freeze-thaw −80 °C, 3 cycles, MQC 200 ng/mL
[14] = long-term −80 °C, 12 months, HQC 375 ng/mL
[15] = long-term −80 °C, 12 months, LQC 3 ng/mL
[16] = long-term −80 °C, 12 months, MQC 200 ng/mL

O=c1c(O)ccccc1-c1ccc2ccccc2c1 [MO-OH-Nap, MO-OH-Nap tropolone]
solubility class per USP ([1]; PBS pH 7.4): partially soluble and very slightly soluble
solubility at 24 h ([1]; phosphate buffered saline (PBS), PBS pH 7.4, 24 h): 20.2 µg/mL and 80.1 µM
B/P Ratio ([2]; 0 min): 1.1 ± 0.1
B/P Ratio ([2]; 30 min): 0.9 ± 0.2
B/P Ratio ([2]; 60 min): 1.0 ± 0.12
% Accuracy [3, 5]: 90.7 ± 5.3%
Measured Mean Conc. [3, 5]: 340.2 ± 20.1 ng/mL
% Accuracy [3, 6]: 101.9 ± 5.8%
Measured Mean Conc. [3, 6]: 3.1 ± 0.2 ng/mL
% Accuracy [3, 7]: 90.1 ± 0.6%
Measured Mean Conc. [3, 7]: 180.2 ± 1.10 ng/mL
% Accuracy [3, 8]: 101.5 ± 5.6%
Measured Mean Conc. [3, 8]: 380.5 ± 20.9 ng/mL
% Accuracy [3, 9]: 107.8 ± 14.8%
Measured Mean Conc. [3, 9]: 3.2 ± 0.5 ng/mL
% Accuracy [3, 10]: 95.8 ± 9.1%
Measured Mean Conc. [3, 10]: 191.6 ± 18.1 ng/mL
% Accuracy [3, 11]: 88.6 ± 4.7%
Measured Mean Conc. [3, 11]: 332.2 ± 17.6 ng/mL
% Accuracy [3, 12]: 100.5 ± 13.3%
Measured Mean Conc. [3, 12]: 3.0 ± 0.4 ng/mL
% Accuracy [3, 13]: 84.0 ± 0.9%
Measured Mean Conc. [3, 13]: 167.9 ± 1.8 ng/mL
% Accuracy [3, 14]: 92.7 ± 0.4%
Measured Mean Conc. [3, 14]: 347.4 ± 1.5 ng/mL
% Accuracy [3, 15]: 95.6 ± 2.4%
Measured Mean Conc. [3, 15]: 2.9 ± 0.1 ng/mL
% Accuracy [3, 16]: 99.8 ± 0.6%
Measured Mean Conc. [3, 16]: 199.5 ± 1.3 ng/mL
metabolic depletion ([4]; NADPH, 60 min): < 15%
parent drug remaining ([4]; all time points to 60 min): > 95%
% Drug Remaining at 5 h ± SD (mouse plasma proteins; 1 µg/mL): 105.6 ± 0.8%
Equilibrium at 5 h ± SD (mouse plasma proteins; 1 µg/mL): 0.3 ± 0.5
% Drug Remaining at 5 h ± SD (mouse plasma proteins; 10 µg/mL): 91.1 ± 2.5%
Equilibrium at 5 h ± SD (mouse plasma proteins; 10 µg/mL): 0.1 ± 0.00
% Plasma Protein Bound ± SD (mouse plasma proteins; 1 µg/mL): 99.6 ± 0.1%
% Plasma Protein Bound ± SD (mouse plasma proteins; 10 µg/mL): 99.7 ± 0.1%
